Measurements: US9802937B2, “Substituted pyrazolo{4,3-D}pyrimidines as kinase inhibitors” (ORIGENIS GMBH, priority 2011, dated 2017)

How the values were obtained:
LRRK2 = LRRK2 (Homo sapiens, UniProt Q5S007); test: LRRK2-LRRK2 G2019S-Assay (LanthaScreen Eu Kinase Binding Assay); details: 5 nM LRRK2 or their mutants, 10 nM tracer 236, RT 1 h; read-out: LRRK2 Activities: IC50
Method in brief: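 Kinase (wild type or mutant, 5 nM) mixed with Eu-anti-GST antibody (2 nM), then 10 nM Alexa Fluor 647 tracer 236 added. After 1 h at room temperature, the acceptor/donor (665/615 nm) FRET ratio was measured. IC50 was fitted from concentration–ratio curves.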

SYK kinase = molecular target: T1, SYK kinase (Homo sapiens, UniProt P43405); test: SYK Assay (OMNIA KINASE ASSAY, SOX peptide fluorescence); assay type: biochemical; details: apparent Ki calculated from the IC50 using the Cheng-Prusoff equation; 1 mM ATP, 30° C.; read-out: SYK Activities: Ki
T1 construct: purchased Invitrogen, Carlsbad
Method in brief: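 Apparent Ki values are derived by Cheng-Prusoff from IC50s of sigmoidal fits of reaction rate against compound concentration. Rates come from chelation-enhanced SOX fluorescence (λex 360/λem 485 nm, read every 30 s over 30 min) as the kinase phosphorylates 10 µM Omnia Tyr 7 peptide at 30 °C, with 1 mM ATP and 0.2 mM DTT.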

MYLK = MYLK (Homo sapiens, UniProt Q15746); test: MYLK Assay (LanthaScreen Eu Kinase Binding Assay); details: 5 nM MYLK, 30 nM tracer 236, RT 1 h; read-out: MYLK Activities: IC50
Method in brief: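 TR-FRET tracer displacement with 5 nM GST-MYLK, 2 nM Eu-anti-GST antibody and 30 nM tracer 236 in kinase buffer A, 1 h at RT. Emission ratio 665/615 nm (ex 340 nm) plotted against inhibitor concentration, IC50 from a variable-slope sigmoidal fit.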

Syk = details: various stimuli, including FcepsilonR1 and BCR induced Syk activation; cited from earlier work
[1] = test system: lymphoma cell lines and primary human lymphoma samples; details: cited from earlier work
JAK kinases = details: cited from earlier work
[2] = test system: refractory NHL and chronic lymphocytic leukemia; details: phase II; cited from earlier work

MYLK, sequence (Q15746 whole entry): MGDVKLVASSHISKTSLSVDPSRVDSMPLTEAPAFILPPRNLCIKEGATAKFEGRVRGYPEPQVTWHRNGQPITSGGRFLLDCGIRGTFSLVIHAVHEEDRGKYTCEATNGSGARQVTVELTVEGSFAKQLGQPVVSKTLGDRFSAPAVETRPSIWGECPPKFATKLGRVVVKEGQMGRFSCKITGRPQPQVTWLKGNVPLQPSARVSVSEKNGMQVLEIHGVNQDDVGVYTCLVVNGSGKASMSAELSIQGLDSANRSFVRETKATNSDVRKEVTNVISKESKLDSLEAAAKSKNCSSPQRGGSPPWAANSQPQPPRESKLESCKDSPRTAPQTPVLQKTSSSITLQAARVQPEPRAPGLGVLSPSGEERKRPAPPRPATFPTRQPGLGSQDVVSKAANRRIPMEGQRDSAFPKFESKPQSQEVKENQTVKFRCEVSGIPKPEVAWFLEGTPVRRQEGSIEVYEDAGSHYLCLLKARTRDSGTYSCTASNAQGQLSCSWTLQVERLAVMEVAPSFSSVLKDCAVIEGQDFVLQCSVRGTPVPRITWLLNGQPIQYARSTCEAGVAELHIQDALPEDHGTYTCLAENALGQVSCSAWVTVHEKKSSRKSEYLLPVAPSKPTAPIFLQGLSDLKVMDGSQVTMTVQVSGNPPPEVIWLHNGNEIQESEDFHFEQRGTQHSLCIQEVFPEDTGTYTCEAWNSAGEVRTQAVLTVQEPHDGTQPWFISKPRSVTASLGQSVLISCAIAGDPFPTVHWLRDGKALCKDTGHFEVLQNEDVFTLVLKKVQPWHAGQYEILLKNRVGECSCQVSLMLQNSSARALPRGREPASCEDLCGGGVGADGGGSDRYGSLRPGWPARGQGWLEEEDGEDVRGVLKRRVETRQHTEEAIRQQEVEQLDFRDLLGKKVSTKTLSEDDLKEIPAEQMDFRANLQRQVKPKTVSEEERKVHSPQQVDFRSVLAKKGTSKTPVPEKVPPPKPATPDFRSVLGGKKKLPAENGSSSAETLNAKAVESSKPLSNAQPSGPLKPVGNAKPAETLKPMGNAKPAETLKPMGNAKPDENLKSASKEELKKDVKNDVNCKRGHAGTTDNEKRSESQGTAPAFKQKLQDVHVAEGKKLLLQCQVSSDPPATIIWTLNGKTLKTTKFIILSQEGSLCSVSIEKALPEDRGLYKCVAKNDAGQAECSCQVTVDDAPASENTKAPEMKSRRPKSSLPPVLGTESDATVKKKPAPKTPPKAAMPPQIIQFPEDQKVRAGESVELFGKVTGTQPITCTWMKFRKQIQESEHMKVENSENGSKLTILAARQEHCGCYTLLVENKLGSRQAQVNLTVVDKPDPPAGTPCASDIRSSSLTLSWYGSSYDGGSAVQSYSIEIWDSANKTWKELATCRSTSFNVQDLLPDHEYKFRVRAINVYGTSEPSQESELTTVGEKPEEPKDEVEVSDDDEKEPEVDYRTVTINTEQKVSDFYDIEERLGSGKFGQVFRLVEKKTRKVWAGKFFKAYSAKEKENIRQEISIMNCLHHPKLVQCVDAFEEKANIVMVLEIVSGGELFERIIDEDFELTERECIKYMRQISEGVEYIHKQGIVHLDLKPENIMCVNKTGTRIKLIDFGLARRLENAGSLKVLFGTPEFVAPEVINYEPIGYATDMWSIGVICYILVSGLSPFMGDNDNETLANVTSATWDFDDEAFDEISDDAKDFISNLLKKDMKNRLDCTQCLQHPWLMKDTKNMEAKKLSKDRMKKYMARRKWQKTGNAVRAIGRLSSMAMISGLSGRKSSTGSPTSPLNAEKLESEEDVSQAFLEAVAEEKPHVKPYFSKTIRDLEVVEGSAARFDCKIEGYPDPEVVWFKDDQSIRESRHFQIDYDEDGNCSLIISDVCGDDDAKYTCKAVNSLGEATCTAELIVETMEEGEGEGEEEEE
LRRK2, sequence (Q5S007 970-2527 limits assumed): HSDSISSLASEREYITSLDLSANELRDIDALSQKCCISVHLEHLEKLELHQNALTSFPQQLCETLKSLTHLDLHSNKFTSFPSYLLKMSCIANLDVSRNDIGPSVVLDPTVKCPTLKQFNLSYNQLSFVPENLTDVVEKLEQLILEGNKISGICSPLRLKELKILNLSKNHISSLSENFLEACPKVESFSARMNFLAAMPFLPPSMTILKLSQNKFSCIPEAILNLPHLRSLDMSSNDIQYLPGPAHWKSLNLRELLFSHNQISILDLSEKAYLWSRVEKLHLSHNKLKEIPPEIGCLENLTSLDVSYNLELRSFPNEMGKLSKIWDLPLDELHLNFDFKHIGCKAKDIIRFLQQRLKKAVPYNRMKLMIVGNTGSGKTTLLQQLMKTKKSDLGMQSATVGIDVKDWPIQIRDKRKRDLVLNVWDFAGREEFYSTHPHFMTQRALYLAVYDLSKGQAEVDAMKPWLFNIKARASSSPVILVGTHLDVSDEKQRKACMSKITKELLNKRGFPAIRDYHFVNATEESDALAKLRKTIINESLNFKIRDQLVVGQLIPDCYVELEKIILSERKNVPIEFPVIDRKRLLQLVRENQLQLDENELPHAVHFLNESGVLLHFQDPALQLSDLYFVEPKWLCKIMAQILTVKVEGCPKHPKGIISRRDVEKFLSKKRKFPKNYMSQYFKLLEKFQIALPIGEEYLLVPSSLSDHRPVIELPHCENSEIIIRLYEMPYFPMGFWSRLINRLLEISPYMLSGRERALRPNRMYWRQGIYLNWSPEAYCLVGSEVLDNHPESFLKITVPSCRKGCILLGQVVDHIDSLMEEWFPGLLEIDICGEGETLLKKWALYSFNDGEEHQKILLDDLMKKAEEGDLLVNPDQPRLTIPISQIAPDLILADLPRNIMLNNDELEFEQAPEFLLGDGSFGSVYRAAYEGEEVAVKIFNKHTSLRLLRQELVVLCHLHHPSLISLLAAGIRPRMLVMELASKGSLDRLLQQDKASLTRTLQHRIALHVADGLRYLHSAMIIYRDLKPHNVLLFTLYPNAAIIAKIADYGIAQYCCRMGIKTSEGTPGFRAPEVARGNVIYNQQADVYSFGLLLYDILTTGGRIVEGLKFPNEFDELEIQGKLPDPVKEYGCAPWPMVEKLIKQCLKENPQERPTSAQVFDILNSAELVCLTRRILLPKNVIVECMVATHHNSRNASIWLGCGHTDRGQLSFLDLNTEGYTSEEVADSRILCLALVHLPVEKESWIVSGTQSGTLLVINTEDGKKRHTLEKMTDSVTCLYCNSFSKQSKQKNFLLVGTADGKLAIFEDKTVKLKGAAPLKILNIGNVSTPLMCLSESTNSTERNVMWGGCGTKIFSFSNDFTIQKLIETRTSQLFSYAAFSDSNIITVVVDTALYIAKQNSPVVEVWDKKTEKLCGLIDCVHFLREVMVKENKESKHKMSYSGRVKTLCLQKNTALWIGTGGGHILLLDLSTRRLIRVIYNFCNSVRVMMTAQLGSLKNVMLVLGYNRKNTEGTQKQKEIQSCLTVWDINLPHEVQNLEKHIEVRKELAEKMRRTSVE

SMILES | IC50 (LRRK2) | Ki (SYK kinase) | IC50 (MYLK) | inhibition of ITAM signaling (Syk) | BCR signaling ([1]; lymphoma cell lines and primary human lymphoma samples) | apoptosis ([1]; lymphoma cell lines) | activity against JAK kinases (JAK kinases) | clinical result [2]
O=C(c1ccc(Nc2nc(-c3cccs3)nc3cn[nH]c23)cc1)N1CCOCC1 [Example #294, morpholino(4-((5-(thiophen-2-yl)-1H-pyrazolo[4,3-d]pyrimidin-7-yl)amino)phenyl)methanone] | 100 to 1000 nM | 10 to 100 nM | < 5 µM | – | – | – | – | –
c1csc(-c2nc(Nc3ccc(CN4CCOCC4)cc3)c3[nH]ncc3n2)c1 [Example #295, N-(4-(morpholinomethyl)phenyl)-5-(thiophen-2-yl)-1H-pyrazolo[4,3-d]pyrimidin-7-amine] | 100 to 1000 nM | < 10 nM | < 5 µM | – | – | – | – | –
COc1cc(Nc2ncc(F)c(Nc3ccc4c(n3)NC(=O)C(C)(C)O4)n2)cc(OC)c1OC [Example R406] | – | – | – | inhibit ITAM signaling | attenuates BCR signaling | resulting in apoptosis of the former | active | favorable results

Now from value to compound, other results behind:

IC50 (LRRK2) | Ki (SYK kinase) | IC50 (MYLK) | SMILES | inhibition of ITAM signaling (Syk) | BCR signaling ([1]; lymphoma cell lines and primary human lymphoma samples) | apoptosis ([1]; lymphoma cell lines) | activity against JAK kinases (JAK kinases) | clinical result [2]
100 to 1000 nM | < 10 nM | < 5 µM | CN1CCN(C2CCN(c3ccc(Nc4nc(-c5cccs5)nc5cn[nH]c45)cc3)CC2)CC1 [Example #290, N-(4-(4-(4-methylpiperazin-1-yl)piperidin-1-yl)phenyl)-5-(thiophen-2-yl)-1H-pyrazolo[4,3-d]pyrimidin-7-amine] | – | – | – | – | –
100 to 1000 nM | < 10 nM | < 5 µM | c1csc(-c2nc(Nc3ccc(N4CCN(C5CC5)CC4)cc3)c3[nH]ncc3n2)c1 [Example #293, N-(4-(4-cyclopropylpiperazin-1-yl)phenyl)-5-(thiophen-2-yl)-1H-pyrazolo[4,3-d]pyrimidin-7-amine] | – | – | – | – | –
